Test results published in patent US6662040B1, “Methods of photoacoustic imaging” (Amersham Health AS, priority 1997, dated 2003).
Values belong to the molecule of their own block, whether it stands above or below them.

Legend:
[1] = cited from earlier work
HT-29 tumors = assay: Comparative biodistribution in mice containing HT-29 tumors; type: in vivo, female immunodeficient mice; conditions: for detection in the tumor: PBS solution
Description: (§1) FIG. 1a is a graph of comparative biodistribution data of contrast agent NC100448 versus indocyanine green as control in female immunodeficient mice containing HT-29 tumors at one hour post intravenous injection of phosphate buffered saline solutions of each.
as §1, with “1b” for “1a”, “three hours” for “one hour”, “each. […] Relative to FIG. 1a, the concentration of the contrast agent in the tumor has increased while the concentration in the blood has decreased.” for “each.”
Biodistribution results are presented in FIGS. 1a (one hour post-dosing) and 1b (three hours post-dosing).

[2] = not told
Description: Monochromatic X-rays with a photon energy of 20 to 30 keV are obtained with a double crystal monochromator using white X-rays from a sychrotron. The beam intensity is modulated by a rotating lead plate chopper with a frequency of 10 Hz. The sample chamber is a cylindrical cell with a volume of about 0.5 ml in a saline bath which has two beryllium windows. The photon flux into the sample chamber is measured with an ionization chamber placed in front.
The amplitude of the photoacoustic signal, normalized to the photon flux, is measured when the sample chamber contains the saline solution and when it contains a barium sulfate suspension.
The amplitude of the photoacoustic signal, normalized to the photon flux, is measured when the sample chamber contains the saline solution and when it contains a solution of iodixanol in PBS.

[3] = Photoacoustic imaging with infrared radiation in mice; type: in vivo, hairless, immunocompetent mice; conditions: 100 μl i.v. tail vein of 4.6 mg/ml in PBS, 750 nm alexandrite laser, immediately following injection
Description: The dry contrast agent (4.6 mg) was dissolved immediately before use in 1 ml phosphate buffered saline (Delbecco's buffer). The solution was doubly filtered through a syringe filter with a pore size of 0.45 μm and then was stored in the dark before injection.
The test animals were hairless, immunocompetent mice weighing about 23 g, which were anaesthetized I. m. with 5 μl xylazine (Rompun) and 10 μl ketamine prior to the measurements.
The irradiating light was produced by an alexandrite laser operating at a frequency of 750 nm. The light beam was attenuated with a neutral density filter so that the energy imparted by each pulse to the skin of the mice was less than 50 millijoules.
For imaging, the mouse rested on the lithium niobate acoustic transducer. The photoacoustic signal was detected after it passed to the opposite side of the mouse from incident radiation. The signal was detected after it passed through the body of the mouse to the opposite side from the point of irradiation.
Before injection of the contrast agent, the first mouse was positioned on its back on the transducer so as to maximize the internal signal when the skin above the liver was irradiated. […] The injected dose was 100 μl injected intravenously into the tail vein with a 26 gauge needle. Immediately following injection, the mouse was again positioned for a maximum signal.

[4] = one hour post intravenous injection
[5] = three hours post intravenous injection

Molecule: Oc1ccc2ccccc2c1N=Nc1ccc(N=Nc2ccccc2)cc1 [Sudan III]
solubility in sesame oil ([1]; sesame oil): soluble in sesame oil
solubility in water ([1]; water): very water insoluble

detection in the tumor (HT-29 tumors; [4]): negligibly detected
detection in the tumor (HT-29 tumors; [5]): negligibly detected
Molecule: CC1(C)C(/C=C/C=C/C=C/C=C2\N(CCCCS(=O)(=O)O)c3ccc4ccccc4c3C2(C)C)=[N+](CCCCS(=O)(=O)[O-])c2ccc3ccccc3c21 [indocyanine green]

amplitude of the photoacoustic signal normalized to photon flux, versus saline solution [2]: larger
Molecule: CC(=O)N(CC(O)CN(C(C)=O)c1c(I)c(C(=O)NCC(O)CO)c(I)c(C(=O)NCC(O)CO)c1I)c1c(I)c(C(=O)NCC(O)CO)c(I)c(C(=O)NCC(O)CO)c1I (stereo not shown) [iodixanol]

Molecule: bis(thioether) 2:1 dye:polymer Reaction Product Between 2-[2-[2-chloro-3-[[1,3-dihydro-1,1,-dimethyl-3-(3-sulfopropyl)-2H-benz [e]indol-2-ylidene]ethylidene]-5-(ethoxycarbonyl)-1-cyclohexen-1-yl]ethenyl]-1,1-dimethyl-3-(3-sulfopropyl)-1H-benz[e]indolium, Inner Salt, Sodium Salt and Disodium PEG3,4000-α,ω-dithiolate [NC100448]
detection in the tumor (HT-29 tumors; [4]): detected in the tumor
concentration in the blood relative to FIG. 1a (one hour) (HT-29 tumors; [5]): decreased
concentration in the tumor relative to FIG. 1a (one hour) (HT-29 tumors; [5]): increased
detection in the tumor (HT-29 tumors; [5]): detected in the tumor
maximum detected signal from the blood vessels of the liver versus prior to injection [3]: 5 to 10 times larger
